Consider six compounds from patent publication US12723063B2, “GIPR-agonist compounds” (Eli Lilly and Company, priority 2019, dated 2026).

Usually Ki stands for a dissociation constant, usually derived from enzyme kinetics or from competition with a known ligand.

Each structure is given as a SMILES string. *1 amine or outer side, *2 acyl side, *3 side chain or, on linkers, in order; H or OH if unused. Where a SMILES comes first, the peptide text is derived from it. Side-chain parts run from the residue outwards. [ ]: non-standard residue; d: D form. The star is where a group is joined. C20 diacid = O=C(O)CCCCCCCCCCCCCCCCCCC(=O)*; αMePhe(2-F) = C[C@](N)(Cc1ccccc1F)C(=O)O; γGlu = O=C(O)[C@H](CCC(=O)[*:2])N[*:1]; 4Pal = N[C@@H](Cc1ccncc1)C(=O)O; αMeL = CC(C)C[C@](C)(N)C(=O)O; AEEA = NCCOCCOCC(=O)O; Aib = CC(C)(N)C(=O)O A value given as a limit tells only on which side of the number the result lay.

Assay [1] concerns the target T1, human GcgR (Homo sapiens, UniProt P47871).
T1 construct: expressed in transfected cells; crude membranes
The experiment in a line: [125I]-Glucagon binding, SPA with WGA beads, 0.1% bacitracin. Particulars: geometric mean, read-out: hGcgR Ki. Summed up:
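SPA competition binding with WGA beads on crude membranes from HEK293 cells stably expressing hGcgR. Buffer: 25 mM HEPES pH 7.4, 2.5 mM CaCl2, 1 mM MgCl2, 0.1% bacitracin, 0.003% Tween-20; 10-point 3-fold dilutions, NSB with 1 μM Gcg.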

For assay [2], the target named is T2, human GIPR (Homo sapiens, UniProt P48546).
T2 construct: expressed in transfected cells; crude membranes
T2 sequence (P48546 22-466): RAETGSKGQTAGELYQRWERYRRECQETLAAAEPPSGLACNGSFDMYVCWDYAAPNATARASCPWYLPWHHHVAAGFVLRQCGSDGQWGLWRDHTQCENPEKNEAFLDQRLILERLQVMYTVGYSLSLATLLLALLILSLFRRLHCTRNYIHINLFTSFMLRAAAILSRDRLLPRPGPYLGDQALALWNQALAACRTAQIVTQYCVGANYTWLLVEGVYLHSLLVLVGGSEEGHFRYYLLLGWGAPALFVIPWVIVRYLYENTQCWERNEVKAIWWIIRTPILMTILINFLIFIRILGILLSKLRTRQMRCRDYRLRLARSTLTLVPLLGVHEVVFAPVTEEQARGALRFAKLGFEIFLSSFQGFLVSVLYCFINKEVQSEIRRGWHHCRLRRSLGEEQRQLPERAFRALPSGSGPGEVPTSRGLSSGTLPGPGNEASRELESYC
In words: [125I]-GIP binding, SPA with WGA beads, 0.1% bacitracin. Conditions: geometric mean, read-out: hGIPR Ki. In a few lines:
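Ki values are geometric means (SEM, n independent days), derived from four-parameter nonlinear regression of IC50. Membranes came from hGIPR-expressing CHO cells.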

T1 sequence (P47871 26-477): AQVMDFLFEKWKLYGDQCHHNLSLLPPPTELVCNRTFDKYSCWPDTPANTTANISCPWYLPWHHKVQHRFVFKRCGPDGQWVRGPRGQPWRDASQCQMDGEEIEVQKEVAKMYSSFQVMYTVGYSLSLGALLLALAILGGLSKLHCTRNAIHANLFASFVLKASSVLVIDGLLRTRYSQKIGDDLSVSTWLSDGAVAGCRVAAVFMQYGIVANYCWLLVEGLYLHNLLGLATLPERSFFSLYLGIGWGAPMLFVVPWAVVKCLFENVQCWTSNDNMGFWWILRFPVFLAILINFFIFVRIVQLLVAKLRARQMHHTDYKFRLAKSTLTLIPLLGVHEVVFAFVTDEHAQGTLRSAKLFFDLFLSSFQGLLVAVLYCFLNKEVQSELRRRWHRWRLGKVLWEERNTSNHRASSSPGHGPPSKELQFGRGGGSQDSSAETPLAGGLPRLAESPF

As for `CC[C@H](C)[C@H](NC(=O)[C@H](Cc1ccccc1)NC(=O)[C@@H](NC(=O)CNC(=O)[C@H](CCC(=O)O)NC(=O)C(C)(C)NC(=O)[C@@H](N)Cc1ccc(O)cc1)[C@@H](C)O)C(=O)N[C@@H](CO)C(=O)N[C@@H](CC(=O)O)C(=O)N[C@@H](Cc1ccc(O)cc1)C(=O)N[C@@H](CO)C(=O)N[C@H](C(=O)N[C@@](C)(CC(C)C)C(=O)N[C@@H](CC(C)C)C(=O)N[C@@H](CC(=O)O)C(=O)N[C@@H](CCCCN)C(=O)N[C@@H](CCCCNC(=O)COCCOCCNC(=O)COCCOCCNC(=O)CC[C@H](NC(=O)CCCCCCCCCCCCCCCCCCC(=O)O)C(=O)O)C(=O)N[C@@H](Cc1c[nH]cn1)C(=O)N[C@@H](CCC(N)=O)C(=O)NC(C)(C)C(=O)N[C@@H](CC(=O)O)C(=O)N[C@@H](Cc1ccccc1)C(=O)N[C@H](C(=O)N[C@@H](CCC(=O)O)C(=O)N[C@@H](Cc1ccncc1)C(=O)N[C@@H](CC(C)C)C(=O)N[C@@H](CC(C)C)C(=O)N[C@@H](C)C(=O)NCC(=O)NCC(=O)N1CCC[C@H]1C(=O)N[C@@H](CO)C(=O)N[C@@H](CO)C(=O)NCC(=O)N[C@@H](C)C(=O)N1CCC[C@H]1C(=O)N1CCC[C@H]1C(=O)N1CCC[C@H]1C(=O)N[C@@H](CO)C(N)=O)C(C)C)[C@@H](C)CC` [Example 48], the Ki in assay [1] is 267 nM; in assay [2], 0.0498 nM.

Turning to `CC[C@H](C)[C@H](NC(=O)[C@H](CO)NC(=O)[C@H](Cc1ccc(O)cc1)NC(=O)[C@H](CC(=O)O)NC(=O)[C@H](CO)NC(=O)[C@@H](NC(=O)[C@](C)(Cc1ccccc1F)NC(=O)[C@@H](NC(=O)CNC(=O)[C@H](CCC(=O)O)NC(=O)C(C)(C)NC(=O)[C@@H](N)Cc1ccc(O)cc1)[C@@H](C)O)[C@@H](C)CC)C(=O)N[C@@H](C)C(=O)N[C@@H](CC(C)C)C(=O)N[C@@H](CC(=O)O)C(=O)N[C@@H](CCCCN)C(=O)N[C@@H](CCCCNC(=O)COCCOCCNC(=O)COCCOCCNC(=O)CC[C@H](NC(=O)CCCCCCCCCCCCCCCCCCC(=O)O)C(=O)O)C(=O)N[C@@H](Cc1c[nH]cn1)C(=O)N[C@@H](CCC(N)=O)C(=O)NC(C)(C)C(=O)N[C@@H](CC(=O)O)C(=O)N[C@@H](Cc1ccccc1)C(=O)N[C@H](C(=O)N[C@@H](CCC(=O)O)C(=O)N[C@@H](Cc1ccc(O)cc1)C(=O)N[C@@H](CC(C)C)C(=O)N[C@@H](CC(C)C)C(=O)N[C@@H](CCC(=O)O)C(=O)NCC(=O)NCC(=O)N1CCC[C@H]1C(=O)N[C@@H](CO)C(=O)N[C@@H](CO)C(=O)NCC(=O)N[C@@H](C)C(=O)N1CCC[C@H]1C(=O)N1CCC[C@H]1C(=O)N1CCC[C@H]1C(=O)N[C@@H](CO)C(N)=O)C(C)C` [Example 37] (H-Y[Aib]EGT[αMePhe(2-F)]ISDYSIALDKK([AEEA-AEEA-γGlu-C20 diacid])HQ[Aib]DFVEYLLEGGPSSGAPPPS-NH2), the inhibition constant Ki stood at 51.4 nM in assay [1] and 0.026 nM in assay [2].

On to `CC[C@H](C)[C@H](NC(=O)[C@H](Cc1ccccc1)NC(=O)[C@@H](NC(=O)CNC(=O)[C@H](CCC(=O)O)NC(=O)C(C)(C)NC(=O)[C@@H](N)Cc1ccc(O)cc1)[C@@H](C)O)C(=O)N[C@@H](CO)C(=O)N[C@@H](CC(=O)O)C(=O)N[C@@H](Cc1ccc(O)cc1)C(=O)N[C@@H](CO)C(=O)N[C@H](C(=O)N[C@@](C)(CC(C)C)C(=O)N[C@@H](CC(C)C)C(=O)N[C@@H](CC(=O)O)C(=O)N[C@@H](CCCCN)C(=O)N[C@@H](CCCCNC(=O)COCCOCCNC(=O)COCCOCCNC(=O)CC[C@H](NC(=O)CCCCCCCCCCCCCCCCCCC(=O)O)C(=O)O)C(=O)N[C@@H](Cc1c[nH]cn1)C(=O)N[C@@H](CCC(N)=O)C(=O)NC(C)(C)C(=O)N[C@@H](CCC(=O)O)C(=O)N[C@@H](Cc1ccccc1)C(=O)N[C@H](C(=O)N[C@@H](CCC(=O)O)C(=O)N[C@@H](Cc1ccc(O)cc1)C(=O)N[C@@H](CC(C)C)C(=O)N[C@@H](CC(C)C)C(=O)N[C@@H](CCC(=O)O)C(=O)N[C@@H](C)C(=O)NCC(=O)N1CCC[C@H]1C(=O)N[C@@H](CO)C(=O)N[C@@H](CO)C(=O)NCC(=O)N[C@@H](C)C(=O)N1CCC[C@H]1C(=O)N1CCC[C@H]1C(=O)N1CCC[C@H]1C(=O)N[C@@H](CO)C(N)=O)C(C)C)[C@@H](C)CC` [Example 65] (H-Y[Aib]EGTFISDYSI[αMeL]LDKK([AEEA-AEEA-γGlu-C20 diacid])HQ[Aib]EFVEYLLEAGPSSGAPPPS-NH2), for which the Ki in assay [1] is 279 nM; in assay [2], 0.0316 nM.

Take `CC[C@H](C)[C@H](NC(=O)[C@H](Cc1ccccc1)NC(=O)[C@@H](NC(=O)CNC(=O)[C@H](CCC(=O)O)NC(=O)C(C)(C)NC(=O)[C@@H](N)Cc1ccc(O)cc1)[C@@H](C)O)C(=O)N[C@@H](CO)C(=O)N[C@@H](CC(=O)O)C(=O)N[C@@H](Cc1ccc(O)cc1)C(=O)N[C@@H](CO)C(=O)N[C@H](C(=O)N[C@@](C)(CC(C)C)C(=O)N[C@@H](CC(C)C)C(=O)N[C@@H](CC(=O)O)C(=O)N[C@@H](CCCCN)C(=O)N[C@@H](CCCCNC(=O)COCCOCCNC(=O)COCCOCCNC(=O)CC[C@H](NC(=O)CCCCCCCCCCCCCCCCCCC(=O)O)C(=O)O)C(=O)N[C@@H](Cc1c[nH]cn1)C(=O)N[C@@H](CCC(N)=O)C(=O)NC(C)(C)C(=O)N[C@@H](CCC(=O)O)C(=O)N[C@@H](Cc1ccccc1)C(=O)N[C@H](C(=O)N[C@@H](CCC(=O)O)C(=O)N[C@@H](Cc1ccncc1)C(=O)N[C@@H](CC(C)C)C(=O)N[C@@H](CC(C)C)C(=O)N[C@@H](C)C(=O)NCC(=O)NCC(=O)N1CCC[C@H]1C(=O)N[C@@H](CO)C(=O)N[C@@H](CO)C(=O)NCC(=O)N[C@@H](C)C(=O)N1CCC[C@H]1C(=O)N1CCC[C@H]1C(=O)N1CCC[C@H]1C(=O)N[C@@H](CO)C(N)=O)C(C)C)[C@@H](C)CC` [Example 52]: the Ki in assay [1] came out at 114 nM; in assay [2], 0.0372 nM.

`CC[C@H](C)[C@H](NC(=O)[C@H](Cc1ccccc1)NC(=O)[C@@H](NC(=O)CNC(=O)[C@H](CCC(=O)O)NC(=O)C(C)(C)NC(=O)[C@@H](N)Cc1ccc(O)cc1)[C@@H](C)O)C(=O)N[C@@H](CO)C(=O)N[C@@H](CC(=O)O)C(=O)N[C@@H](Cc1ccc(O)cc1)C(=O)N[C@@H](CO)C(=O)N[C@H](C(=O)N[C@@](C)(CC(C)C)C(=O)N[C@@H](CC(C)C)C(=O)N[C@@H](CC(=O)O)C(=O)N[C@@H](CCCCN)C(=O)N[C@@H](CCCCNC(=O)COCCOCCNC(=O)COCCOCCNC(=O)CC[C@H](NC(=O)CCCCCCCCCCCCCCCCCCC(=O)O)C(=O)O)C(=O)N[C@@H](Cc1c[nH]cn1)C(=O)N[C@@H](CCC(N)=O)C(=O)NC(C)(C)C(=O)N[C@@H](CC(=O)O)C(=O)N[C@@H](Cc1ccccc1)C(=O)N[C@H](C(=O)N[C@@H](CCC(=O)O)C(=O)N[C@@H](Cc1ccncc1)C(=O)N[C@@H](CC(C)C)C(=O)N[C@@H](CC(C)C)C(=O)N[C@@H](CCC(=O)O)C(=O)N[C@@H](CCC(N)=O)C(=O)NCC(=O)N1CCC[C@H]1C(=O)N[C@@H](CO)C(=O)N[C@@H](CO)C(=O)NCC(=O)N[C@@H](C)C(=O)N1CCC[C@H]1C(=O)N1CCC[C@H]1C(=O)N1CCC[C@H]1C(=O)N[C@@H](CO)C(N)=O)C(C)C)[C@@H](C)CC` [Example 46] (H-Y[Aib]EGTFISDYSI[αMeL]LDKK([AEEA-AEEA-γGlu-C20 diacid])HQ[Aib]DFVE[4Pal]LLEQGPSSGAPPPS-NH2): the values for the Ki in assay [1] and in assay [2] were 435 nM and 0.0319 nM, respectively.

`CC[C@H](C)[C@H](NC(=O)[C@H](CO)NC(=O)[C@H](Cc1ccc(O)cc1)NC(=O)[C@H](CC(=O)O)NC(=O)[C@H](CO)NC(=O)[C@@H](NC(=O)[C@](C)(CC(C)C)NC(=O)[C@@H](NC(=O)CNC(=O)[C@H](CCC(=O)O)NC(=O)C(C)(C)NC(=O)[C@@H](N)Cc1ccc(O)cc1)[C@@H](C)O)[C@@H](C)CC)C(=O)N[C@@H](C)C(=O)N[C@@H](CC(C)C)C(=O)N[C@@H](CC(=O)O)C(=O)N[C@@H](CCCCN)C(=O)N[C@@H](CCCCNC(=O)COCCOCCNC(=O)COCCOCCNC(=O)CC[C@H](NC(=O)CCCCCCCCCCCCCCCCCCC(=O)O)C(=O)O)C(=O)N[C@@H](Cc1c[nH]cn1)C(=O)N[C@@H](CCC(N)=O)C(=O)NC(C)(C)C(=O)N[C@@H](CCC(=O)O)C(=O)N[C@@H](Cc1ccccc1)C(=O)N[C@H](C(=O)N[C@@H](CC(N)=O)C(=O)N[C@@H](Cc1ccc(O)cc1)C(=O)N[C@@H](CC(C)C)C(=O)N[C@@H](CC(C)C)C(=O)N[C@@H](C)C(=O)N[C@H](C(=O)NCC(=O)N1CCC[C@H]1C(=O)N[C@@H](CO)C(=O)N[C@@H](CO)C(=O)NCC(=O)N[C@@H](C)C(=O)N1CCC[C@H]1C(=O)N1CCC[C@H]1C(=O)N1CCC[C@H]1C(=O)N[C@@H](CO)C(N)=O)[C@@H](C)O)C(C)C` [Example 35] (H-Y[Aib]EGT[αMeL]ISDYSIALDKK([AEEA-AEEA-γGlu-C20 diacid])HQ[Aib]EFVNYLLATGPSSGAPPPS-NH2): the Ki in assay [1] is more than 960 nM; in assay [2] it was 0.0351 nM.
